From patent publication US5955616A, “Pyrrolidine derivatives having phospholipase A2 inhibitory activity” (Shionogi & Co., Ltd., priority 1995, dated 1999)
Blank lines part the entries; values can stand above or below the compound they belong to.

Key:
cPLA2 = target: T1, cPLA2 (Homo sapiens, UniProt P47712); experiment: cPLA2 Inhibitory activity (release of radiolabelled fatty acid from liposomes); assay type: biochemical; conditions: 50 mM HEPES pH 7.4, 1 mM CaCl2, 2.5 μM radio-labeled phosphatidylcholine, 15 min at 37° C; read-out: cPLA2 Inhibition Activity IC50
T1 sequence (P47712 1-749): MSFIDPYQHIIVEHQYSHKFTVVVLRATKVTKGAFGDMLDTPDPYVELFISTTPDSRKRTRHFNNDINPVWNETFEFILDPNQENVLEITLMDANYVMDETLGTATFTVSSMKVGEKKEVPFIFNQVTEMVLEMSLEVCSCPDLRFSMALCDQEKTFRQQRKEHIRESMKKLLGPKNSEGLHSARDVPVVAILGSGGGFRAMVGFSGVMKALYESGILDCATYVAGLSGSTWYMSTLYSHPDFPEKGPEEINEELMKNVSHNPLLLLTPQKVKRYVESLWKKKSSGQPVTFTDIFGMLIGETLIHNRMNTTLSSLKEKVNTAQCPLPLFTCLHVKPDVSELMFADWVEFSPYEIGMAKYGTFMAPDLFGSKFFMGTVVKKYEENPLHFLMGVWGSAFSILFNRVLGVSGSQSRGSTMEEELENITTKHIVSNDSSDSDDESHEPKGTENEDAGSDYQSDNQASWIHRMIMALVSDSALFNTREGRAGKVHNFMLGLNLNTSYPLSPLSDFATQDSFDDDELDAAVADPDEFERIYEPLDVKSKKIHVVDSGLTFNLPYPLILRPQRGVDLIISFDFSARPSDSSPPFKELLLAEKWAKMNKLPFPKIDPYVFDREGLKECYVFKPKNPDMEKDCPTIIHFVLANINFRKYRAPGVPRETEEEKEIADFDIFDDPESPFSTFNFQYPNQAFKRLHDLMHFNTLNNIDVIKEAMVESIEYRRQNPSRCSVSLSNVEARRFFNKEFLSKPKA
How it was run: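 Liposomes of [14C]-arachidonoyl phosphatidylcholine/dioleoylglycerol (2:1) at 2.5 μM labelled PC in 50 mM HEPES pH 7.4 with 1 mM CaCl2, 2 mM DTT, 150 mM NaCl, 0.1 mg/ml BSA. Compound (0.4–250 μM), 4 ng enzyme, 15 min at 37 °C. Released fatty acid counted by scintillation; IC50 from % of control.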

[1] = test system: Prostaglandin E2 production in human fibroblasts; experiment: Inhibition of Production of Prostaglandin E2 in Human Fibroblasts (IL-1 stimulated); assay type: cell-based; conditions: Fibroblast, stimulation with IL-1, read-out: Inhibitory activity Against the Production of Prostaglandin E2 in Human Fibroblasts IC50
Experimental: Experiment 2 Inhibition of Production of Prostaglandin E2 in Human Fibroblasts
From this viewpoint, the compounds of the present invention were tested for the effect on the production of prostaglandin E2 by human fibroblasts under the stimulation with IL-1 according to the method of J. M. Dayer et al (CACHECTIN/TUMOR NECROSIS FACTOR STIMULATES COLLAGENASE AND PROSTAGLANDIN E2 PRODUCTION BY HUMAN SYNOVIAL CELLS AND DERMAL FIBROBLASTS; J. M. Dayer, B. Beutlerm and A. Cerami, J. Exp. Med., 162,2163-2168, 1985).

SMILES: CS[C@H]1C[C@@H](C(=O)Nc2ccc(C(CO)=C3SC(=O)NC3=O)cc2)N(S(=O)(=O)c2ccc(-c3ccccc3)cc2)C1 [Compound D-1]
- IC50 (cPLA2): 22 µM
- IC50 [1]: 3.6 µM

SMILES: O=C1NC(=O)C(=C(CO)c2ccc(NC(=O)[C@@H]3C[C@H](SCc4ccccc4)CN3S(=O)(=O)c3ccc(-c4ccccc4)cc3)cc2)S1 [Compound D-2]
- IC50 (cPLA2): 7 µM
- IC50 [1]: 5.7 µM

SMILES: O=C1NC(=O)/C(=C/c2ccc(C=CC[C@@H]3C[C@H](SC(c4ccccc4)(c4ccccc4)c4ccccc4)CN3C(=O)CCc3ccccc3)cc2)S1 [Compound E-2]
- IC50 (cPLA2): 0.46 µM
- IC50 [1]: 6 µM

SMILES: O=C1NC(=O)/C(=C/c2ccc(CCC[C@@H]3C[C@H](SC(c4ccccc4)c4ccccc4)CN3C(=O)CCc3ccccc3)cc2)S1 [Compound E-4]
- IC50 (cPLA2): 3.7 µM
- IC50 [1]: 1.9 µM

Continued, in another order:

- IC50 (cPLA2): 3.2 µM
SMILES: O=C1NC(=O)/C(=C/c2ccc(C(=O)NC[C@@H]3C[C@H](OCc4ccc(F)cc4F)CN3C(=O)c3ccc(Cn4sccc4=O)cc3)cc2)S1 [Compound H-8]
- IC50 [1]: 9.9 µM

- IC50 (cPLA2): 2 µM
SMILES: O=C1NC(=O)/C(=C/c2ccc(C(=O)NC[C@@H]3C[C@H](OCc4ccc(-c5ccccc5)cc4)CN3C(=O)c3ccc(Cn4sccc4=O)cc3)cc2)S1 [Compound H-9]
- IC50 [1]: 9.6 µM

- IC50 (cPLA2): 10 µM
SMILES: O=C1NC(=O)/C(=C/c2ccc(C(=O)NC[C@@H]3C[C@H](OC(c4ccccc4)c4ccccc4)CN3C(=O)c3ccc(CN4CCCC4=O)cc3)cc2)S1 [Compound H-10]
- IC50 [1]: 2.4 µM

- IC50 (cPLA2): 4.3 µM
SMILES: N#CC(=S)Nc1ccc(C(=O)N2C[C@@H](OC(c3ccccc3)c3ccccc3)C[C@H]2CNC(=O)c2ccc(/C=C3\SC(=O)NC3=O)cc2)cc1 [Compound H-11]
- IC50 [1]: 8.5 µM

- IC50 (cPLA2): 4.3 µM
SMILES: CC(=O)Oc1ccc(O)cc1CCCCCCC(=O)N1C[C@@H](OC(c2ccccc2)c2ccccc2)C[C@H]1CNC(=O)c1ccc(/C=C2\SC(=O)NC2=O)cc1 [Compound H-16]
- IC50 [1]: 1.9 µM

- IC50 (cPLA2): 4.9 µM
SMILES: O=C1C=CC(=O)C(CCCCCCC(=O)N2C[C@@H](OC(c3ccccc3)c3ccccc3)C[C@H]2CNC(=O)c2ccc(/C=C3\SC(=O)NC3=O)cc2)=C1 [Compound H-17]
- IC50 [1]: 7 µM

- IC50 (cPLA2): 11 µM
SMILES: O=C1NC(=O)/C(=C/c2ccc(C(=O)NC[C@@H]3C[C@H](OCc4ccc(F)cc4F)CN3C(=O)CCCCCCC3=CC(=O)c4ccccc4C3=O)cc2)S1 [Compound H-18]
- IC50 [1]: 1.5 µM

- IC50 (cPLA2): 2.9 µM
SMILES: O=C1NC(=O)C(=Cc2ccc(C(=O)NC[C@@H]3C[C@H](NC(=O)c4ccc(Cn5sccc5=O)cc4)CN3S(=O)(=O)c3ccc(-c4ccccc4)cc3)cc2)S1 [Compound J-2]
- IC50 [1]: 9.7 µM
